# ChEMBL document CHEMBL2163295, “Uvaridacols E-H, highly oxygenated antiausterity agents from Uvaria dac” (2012)
# Key:
# PANC-1 [1] = experiment: Cytotoxicity against human PANC1 cells grown in nutrient-deprived medium after 24 hrs by WST8 assay; format: functional
# PANC-1 [2] = experiment: Cytotoxicity against human PANC1 cells grown in DMEM medium after 24 hrs by WST8 assay; format: functional
SMILES,PC50 (PANC-1 [1]) [µM],PC50 (PANC-1 [2]) [µM]
COc1cc(C[C@H]2C(=O)OC[C@@H]2Cc2ccc(OC)c(OC)c2)ccc1O [ARCTIGENIN],1,–
O=c1[nH]cc(F)c(=O)[nH]1 [FLUOROURACIL],>200,>200
Nc1ccn([C@@H]2O[C@H](CO)[C@@H](O)C2(F)F)c(=O)n1 [GEMCITABINE],>200,>200
O=C(OC[C@]1(O)C=C[C@H](O)[C@@H](OC(=O)c2ccccc2)[C@@H]1O)c1ccccc1 [UVARIDACOL E],135,–
CC(=O)O[C@@H]1[C@@H](OC(=O)c2ccccc2)[C@@H](O)C=C[C@]1(O)COC(=O)c1ccccc1 [UVARIDACOL F],124,–
O=C(OC[C@]1(O)C=C[C@@H](O)[C@H](O)[C@H]1OC(=O)c1ccccc1)c1ccccc1 [UVARIDACOL G],>200,–
CC(=O)O[C@@H]1[C@@H](O)[C@H](OC(=O)c2ccccc2)C=C[C@@]1(O)COC(=O)c1ccccc1 [UVARIDACOL H],156,–
